Measurements as given in US12495798B2, “Nicotinamide compound and herbicidal composition comprising compound” (KOREA RESEARCH INSTITUTE OF CHEMICAL TECHNOLOGY, priority 2019, dated 2025).

Columns and labels:
Format in all cases: in vivo
sorghum = test: Herbicidal activity test against upland field weeds (foliar treatment test); parameters: key to Foliar treatment herbicidal activity, Sorghum: 0 (no control); 100 (complete control); settings: 50 g ai/ha, scale 0-100; for plant injury at 50 g/ha: Sorghum
Method in brief: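 Weeds were raised from seed or rootstocks in horticultural soil in a greenhouse (30±5° C., 14/10 h light/dark), then foliage was hand-sprayed with compound at 50 or 75 g a.i./ha in 50% acetone with 0.1% Tween-20. Control was scored visually 0–100 against untreated plants after 14 days, or 21 if needed.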

barnyard grass = test: Herbicidal activity test against upland field weeds (soil treatment test); parameters: key to Soil treatment herbicidal activity, barnyard grass: 0 (no control); 100 (complete control); settings: 50 g ai/ha, scale 0 (no control) to 100 (complete control)
Method in brief: (§1)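 Pre-emergence test: seeds or rootstocks were sown in fertilized sandy loam, and the next day the soil surface was sprayed with compound at 50 or 75 g a.i./ha in 50% acetone/0.1% Tween-20. Plants were grown in a greenhouse (30±5 °C, 14/10 h light/dark), then visually scored 0–100 against untreated at 14 d (21 d if needed).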

black nightshade = test: as above; parameters: key to Soil treatment herbicidal activity, black nightshade: 0 (no control); 100 (complete control); settings: 50 g ai/ha, scale 0 (no control) to 100 (complete control)
Method in brief: as §1

SMILES | plant injury at 50 g/ha (sorghum) | Soil treatment herbicidal activity, barnyard grass (barnyard grass) | Soil treatment herbicidal activity, black nightshade (black nightshade) | pest or weed control at 50 g/ha (black nightshade; Solanum nigrum) | Foliar treatment herbicidal activity, Sorghum (sorghum)
Cn1nnc(CSCc2nc(C(F)(F)F)ccc2C(=O)N(C(=O)c2ccccc2)c2nnnn2C)n1 [Compound No. 2-109, N-benzoyl-N-(1-methyl-1H-tetrazol-5-yl)-2-((((2-methyl-2H-tetrazol-5-yl)methyl)thio)methyl)-6-(trifluoromethyl)nicotinamide] | 80% | 0 | 100 | – | –
COc1nc(COCc2nc(C(F)(F)F)ccc2C(=O)Nc2nnnn2C)nn1C [Compound No. 2-129, 2-(((5-methoxy-1-methyl-1H-1,2,4-triazol-3-yl)methoxy)methyl)-N-(1-methyl-1H-tetrazol-5-yl)-6-(trifluoromethyl)nicotinamide] | 40% | 0 | 100 | – | –
Cn1nc(COCc2nc(C(F)(F)F)ccc2C(=O)Nc2nnnn2C)nc1Cl [Compound No. 2-135, 2-(((5-chloro-1-methyl-1H-1,2,4-triazol-3-yl)methoxy)methyl)-N-(1-methyl-1H-tetrazol-5-yl)-6-(trifluoromethyl)nicotinamide] | 30% | 0 | – | 60% | –
COC(=O)OC(C)N(C(=O)c1ccc(C(F)(F)F)nc1COCc1nnn(C)n1)c1nnnn1C (stereo not drawn) [Compound No. 4-4, methyl(1-(N-(1-methyl-1H-tetrazol-5-yl)-2-(((2-methyl-2H-tetrazol-5-yl)methoxy)methyl)-6-(trifluoromethyl)nicotinamido)ethyl)carbonate] | – | 0 | 100 | – | 100
CCOC(=O)OC(C)N(C(=O)c1ccc(C(F)(F)F)nc1COCc1nnn(C)n1)c1nnnn1C (stereo not drawn) [Compound No. 4-8, ethyl(1-(N-(1-methyl-1H-tetrazol-5-yl)-2-(((2-methyl-2H-tetrazol-5-yl)methoxy)methyl)-6-(trifluoromethyl)nicotinamido)ethyl)carbonate] | – | 100 | 100 | – | 70
CCOC(=O)OC(C)n1nnn(C)c1=NC(=O)c1ccc(C(F)(F)F)nc1CSCc1nnn(C)n1 (stereo not drawn) [Compound No. 4-10, ethyl (1-(4-methyl-5-((2-((((2-methyl-2H-tetrazol-5-yl)methyl)thio)methyl)-6-(trifluoromethyl)nicotinoyl)imino)-4,5-dihydro-1H-tetrazol-1-yl)ethyl)carbonate] | – | 100 | 100 | – | 100
